Measured values: patent publication US6376666B1 (Nauchno-Issledovatelsky Institut Farmakologii Rossiiskoi …, priority 1994, dated 2002)
Marks after values point to notes of the source that are not given here.

Assays:
Type in all cases: in vivo
[1] = tested on: ischemized myocardium of cats; assay: ST-segment elevation during 5 min occlusions of coronary artery (acute coronary deficiency); conditions: for change in mean elevation of ST-segment vs control occlusion: cats, 1.0 mg/kg i.v.
Procedure: These experiments were conducted in cats weighing 2,5-4,0 kg under anasthesia by i.v. injection of nembutal (40 mg/kg) in open chest conditions. Epicardium electrogram in 3-4 leads was registered in “Mingograph-81”. The value of mean elevation of ST-segment during 5 min occlusions of anterior left descending coronary artery with 15 min reperfusions between them was the main index of intensity of reversible ischemized damage of myocardium.
The statistical calculation was carried out with non-parametric Wilcocson method for associated variants.

[2] = tested on: cats; assay: hemodynamics and activity of intact heart in cats under anesthesia; conditions: for Cardiac volume, change from basal level / Heart rate, change from basal level / Mean blood flow accelaration (aortic), change from basal level / Mean blood pressure, change from basal level / Stroke volume, change from basal level: cats, 1.0 mg/kg i.v.
Procedure: The effects of compounds on the hemodynamics and activity of intact heart were studied in cats under anesthesia. The experiments were carried out under conditions of open chest. The phase curve of aortic blood flow was the main index of cardiac activity. The compounds were administered i.v. in physiological solution. The t-Student' test was used to estimate the statistical significance.

[3] = tested on: Balb/c mice; assay: open-field test, Balb/c mice (passive type of emotional-stress reaction); conditions: i.p., screening
Text: The main point of this approach consists in comparative analysis of the behavioural effects of tested compounds in two inbred strains of mice Balb/c and C57B1/6 with different hereditary types of emotional-stress reactions (ESR). The anxiolytic effect was estimated as the activation of the locomotor activity of animals with “passive” type of ESR (Balb/c mice). The main index describing the sedative properties of tested drugs was the inhibition of the locomotor activity of mice with “active” type of ESR (C57B1/6 strain). The anxioselectivity was evaluated according to coincidence of doses range which activated or inhibited the behavior of mice of different strains. Earlier this approach has been successfully used for estimation of anxioselective activity of such known drugs as phenazepam [Seredenin S. B. et al., Bull.Exp.Biol.Med., 1979, v.88, N7, p.38; Seredenin S. B. et al., Ann.Inst.Super.Sanita, 1990, v.26, N1, p.81-88], mexidol [Seredenin S. B. et al., Khimiko-Farmatsevt.Zhurnal, 1987, N2, p.134; Vironina T. A., Seredenin S. B., Ann.Inst.Super.Sanita, 1988, v.24, N3, p.461-466] and gidazepam [Seredenin S. B. et al., in: “Gidazepam” Kiev, Naukova Dumka, 1992, p.92; Seredenin S. B., Blednov Yu. A., Phys.Chem.Biol.Med., 1993, v.1, N1, p.53-60].
Male C57B1/6 and Balb/c mice (“Stolbovaya” animal farm), weighing 20-22 g were used. The animals were housed in a separate animal room in groups of ten and maintained on 12 h light-dark cycle (light from 8.00 till 20.00) with free access to standard food and water during two weeks before experiment. Testing was performed between 9.00 and 13.00. Every used compound was administered intraperitoneally in water solutions 30 min before testing (0,1 ml solution per 10 g of weight). The “open-field” apparatus consisted of cylinder closed from one end, illuminated by four 75 W lamps fixed to the walls 100 cm above the floor. The “open-field” apparatus was 100 cm in diameter and white-painted; the floor was marked with 3 black circles and some radial lines divided the floor into 16 peripheral and 8 central segments. 30 min after injection each animal was placed in the same peripheral square on the floor for 3 min of testing after 1 min exposure in the dark chamber. The following behavior variables were recorded: 1) the number of crossings in the peripheral area (peripheral activity); 2) the number of crossings in the central segments (central activity); 3) the number of rearings (vertical activity); 4) the emotionality was measured as the number of defecations during the test. The sum of all types of locomotor activity was marked as total activity. The t-Student test was used for statistical analysis.

Compound: CCOc1ccc2nc(SCCN(C)C)[nH]c2c1 [VIII]
- change in mean elevation of ST-segment vs control occlusion ([1]; occlusion 20 min after injection, 30 sec of occlusion): −0.45 mv
- change in mean elevation of ST-segment vs control occlusion ([1]; occlusion 20 min after injection, 1 min of occlusion): −0.30 mv
- change in mean elevation of ST-segment vs control occlusion ([1]; occlusion 20 min after injection, 2 min of occlusion): −0.50 mv
- change in mean elevation of ST-segment vs control occlusion ([1]; occlusion 20 min after injection, 4 min of occlusion): −0.50 mv
- change in mean elevation of ST-segment vs control occlusion ([1]; occlusion 20 min after injection, 5 min of occlusion): −0.25 mv
- change in mean elevation of ST-segment vs control occlusion ([1]; occlusion 40 min after injection, 15 sec of reperfusion): −0.75 mv
- change in mean elevation of ST-segment vs control occlusion ([1]; occlusion 40 min after injection, 30 sec of occlusion): −0.55 mv
- change in mean elevation of ST-segment vs control occlusion ([1]; occlusion 40 min after injection, 1 min of occlusion): −0.35 mv
- change in mean elevation of ST-segment vs control occlusion ([1]; occlusion 40 min after injection, 2 min of occlusion): −0.40 mv
- change in mean elevation of ST-segment vs control occlusion ([1]; occlusion 40 min after injection, 4 min of occlusion): −0.50 mv
- change in mean elevation of ST-segment vs control occlusion ([1]; occlusion 40 min after injection, 5 min of occlusion): −0.85 mv
- change in mean elevation of ST-segment vs control occlusion ([1]; occlusion immediately after injection, 15 sec of reperfusion): −0.40 mv
- change in mean elevation of ST-segment vs control occlusion ([1]; occlusion immediately after injection, 30 sec of occlusion): −1.20* mv
- change in mean elevation of ST-segment vs control occlusion ([1]; occlusion immediately after injection, 1 min of occlusion): −0.90* mv
- change in mean elevation of ST-segment vs control occlusion ([1]; occlusion immediately after injection, 2 min of occlusion): −1.25* mv
- change in mean elevation of ST-segment vs control occlusion ([1]; occlusion immediately after injection, 4 min of occlusion): −0.70 mv
- change in mean elevation of ST-segment vs control occlusion ([1]; occlusion immediately after injection, 5 min of occlusion): −0.80 mv
- effect on mean elevation of ST-segment during 5 min occlusion, in words ([1]; cats, 1,0 mg/kg i.v.): decreased the mean elevation of ST-segment
- effect on contractile function of heart, in words ([2]; cats i.v., same doses as bradycardia): slightly enhanced the contractility of myocardium
- duration of bradycardia after administration ([2]; cats i.v., VIII 1,0, IX 0,5 and 1,0, XX 1,0 and 2,0 mg/kg): 30 min
- effect on heart rate, in words ([2]; cats i.v., VIII 1,0, IX 0,5 and 1,0, XX 1,0 and 2,0 mg/kg, XXIII 1.0, verapamil 0.5 mg/kg): expressed bradycardia
- Cardiac volume, change from basal level ([2]; after 2 min): +7.0 ± 2.9%
- Heart rate, change from basal level ([2]; after 2 min): −10.9 ± 2.3 %
- Mean blood flow accelaration (aortic), change from basal level ([2]; after 2 min): +3.3 ± 2.7%
- Mean blood pressure, change from basal level ([2]; after 2 min): −1.8 ± 3.8%
- Stroke volume, change from basal level ([2]; after 2 min): +20.6 ± 6.5 %
- Cardiac volume, change from basal level ([2]; after 5 min): +6.0 ± 12.8%
- Heart rate, change from basal level ([2]; after 5 min): −3.2 ± 1.4%
- Mean blood flow accelaration (aortic), change from basal level ([2]; after 5 min): −2.0 ± 9.0%
- Mean blood pressure, change from basal level ([2]; after 5 min): −2.8 ± 5.7%
- Stroke volume, change from basal level ([2]; after 5 min): +5.6 ± 10.8%
- Cardiac volume, change from basal level ([2]; after 10 min): −7.5 ± 9.6%
- Heart rate, change from basal level ([2]; after 10 min): −4.4 ± 1.9%
- Mean blood flow accelaration (aortic), change from basal level ([2]; after 10 min): −5.2 ± 7.8%
- Mean blood pressure, change from basal level ([2]; after 10 min): −7.8 ± 5.7%
- Stroke volume, change from basal level ([2]; after 10 min): −3.5 ± 8.7%
- Cardiac volume, change from basal level ([2]; after 20 min): −7.2 ± 9.2%
- Heart rate, change from basal level ([2]; after 20 min): −3.2 ± 1.8%
- Mean blood flow accelaration (aortic), change from basal level ([2]; after 20 min): −6.2 ± 7.6%
- Mean blood pressure, change from basal level ([2]; after 20 min): −12.0 ± 5.0%
- Stroke volume, change from basal level ([2]; after 20 min): −4.5 ± 8.4%
- Cardiac volume, change from basal level ([2]; after 30 min): −2.2 ± 3.0%
- Heart rate, change from basal level ([2]; after 30 min): −5.4 ± 3.1%
- Mean blood flow accelaration (aortic), change from basal level ([2]; after 30 min): +1.2 ± 2.1%
- Mean blood pressure, change from basal level ([2]; after 30 min): −6.5 ± 5.7%
- Stroke volume, change from basal level ([2]; after 30 min): +3.5 ± 3.5%
- Cardiac volume, change from basal level ([2]; after injection): 38.1 ± 11.6 %
- Heart rate, change from basal level ([2]; after injection): −15.3 ± 1.1 %
- Mean blood flow accelaration (aortic), change from basal level ([2]; after injection): +31.3 ± 10.8%
- Mean blood pressure, change from basal level ([2]; after injection): −14.8 ± 12.5%
- Stroke volume, change from basal level ([2]; after injection): 63.2 ± 14.0 %
- effect on the behavior (locomotor activity) of Balb/c mice in open-field test, in words [3]: neither activatory nor inhibitory effects
